The values below come from article PMC10518255, “A first-in-class pan-lysyl oxidase inhibitor impairs stromal remodeling and enhances gemcitabine response and survival in pancreatic cancer” (Nature Cancer, 2023).

Several values for one entry are separate records, joined by “and”; a condition that tells them apart may be missing. Identical values can stand only once.

In assay [1] the test system is KPC PDAC tumors. The assay can be described thus: Picrosirius red staining of KPC tumors (Fig. 1g). In kind it is in vivo, mouse. The following applies: KPC tumour bearing mice, Gem 100 mg/kg twice weekly i.p. for 15 cycles, individual animals. An excerpt: Fig. 1 Characterization of LOX family in PDAC. a,b, Kaplan–Meier curves for 5-year overall survival for lysyl oxidase family scores in the APGI/ICGC (low, n = 90 patients; high, n = 89 patients) (a) and TCGA (low, n = 57 patients; high, n = 58 patients) (b) PDAC datasets. Lines represent upper and lower tertiles. The lysyl oxidase family expression score is weighted by the Cox proportional hazards model coefficients for each family member. P values determined by log-rank (Mantel–Cox) test. c, Representative images of picrosirius red stained tumor cores from APGI/ICGC tumor microarrays. […] P values determined by log-rank (Mantel–Cox) test. e, Human LOX and LOXL2 plasma concentrations in healthy (n = 30 patient samples) and patients with PDAC (n = 12 patient samples) determined by SiMoA. […] Scale bars, 100 μm. g, Quantitative comparison of picrosirius red staining in tumors from KPC tumor-bearing mice treated with either saline vehicle or gemcitabine (n = 10 biologically independent animals per group). […] Two-tailed P values determined by unpaired, nonparametric t-tests with a Mann–Whitney U-test correction (comparison between two groups). […]

The test system of assay [2] is human pancreatic cancer CAFs. Briefly: 3D organotypic matrix contraction assay. In kind it is cell-based. Also noted: area of matrices: unit not given here. Particulars: for area of matrices: single replicates. As for the experimental part: High-purity rat tail collagen for 3D organotypic assays was acid extracted following previously published methodology. The 12-day organotypic assays were carried out as described previously. In brief, 2 × 10^5 KPC CAFs were embedded in 2.5 ml 1.5 mg ml^−1 rat tail collagen and allowed to remodel for 12 days in a six-well plate in DMEM supplemented with 10% FBS and 1% penicillin–streptomycin in 21% O2/5% CO2 (Extended Data Fig. 4a). For human pancreatic cancer CAFs, 3.45 × 10^5 cells were embedded into 1.25 ml 1.5 mg ml^−1 rat tail collagen and allowed to remodel for 12 days in a 12-well plate in IMDM supplemented with 4 mM glutamine and 10% FBS in 21% O2/5% CO2.
Extended Data Fig. 4 PXS-5505 inhibits collagen cross-linking by PDAC CAFs in vitro resulting in decreased cancer cell invasion. a. Schematic of organotypic matrix remodeling assay whereby CAFs are embedded into a 3D collagen matrix and growth media supplemented with or without PXS-5505 to inhibit lysyl oxidase family activity b. Chemical structures of lysyl oxidase family catalyzed hydroxyallysine or allysine residues and the subsequent divalent and trivalent bonds that are formed that can be quantified by mass spectrometry. c. Representative images of 3D organotypic matrix contraction by human pancreatic cancer CAFs at days 2, 6 and 12 in the absence (gray) and presence (pink) of PXS-5505 (30 µM). Scale bars = 5 mm. […] Data presented as mean values +/− SD. d. […] Data presented as mean values +/− SD. Relative fold expression of LOXL family members compared to LOX were determined by 2^–∆∆Ct approach. f. Schematic of cancer cell invasion in a 3D organotypic matrix assay whereby cancer cells are seeded to the surface of a remodeled collagen plug and placed at an air–liquid interface and allowed to invade into the remodeled matrix. […] Scale bars = 100 μm. g. […] Representative images of 3D organotypic matrix contraction assay at days 2, 6 and 12 of control (gray) and presence of PXS-5120 (blue) and PXS-5505 (pink). Scale bars = 5 mm. Comparison of measured area of matrices between control, PXS-5120 and PXS-5505 treatment groups (n = 3) over time. i. […] Representative images of invasion of KPC cancer cells into a contracted organotypic matrix as determined by H&E staining. […] Source data

Assay [3] has as its system Lysyl oxidase family activity in ear. The assay can be described thus: Target engagement: lysyl oxidase family activity in ear after single 30 mg/kg oral dose (Fig. 2g). Particulars: rats; for Lysyl oxidase family activity in the ear: single 30 mg/kg oral, individual samples, 30 mg/kg. Further details: Lysyl oxidase family activity in the ear: unit not given here. In kind it is in vivo, rat. As for the experimental part:
Data are presented as mean ± s.d. Two-tailed P value determined by unpaired, nonparametric t-test with a Mann–Whitney U-test correction (comparison to PBS control). h, Lysyl oxidase family activity measured in freshly excised aorta determined by fluorometric activity assay n = 19 (PBS), 5 (4–120 h) biological independent samples. Data presented as mean ± s.d. Two-tailed P value determined by unpaired, nonparametric t-test with a Mann–Whitney U-test correction (comparison to PBS control).
To confirm that PXS-5505 inhibits lysyl oxidase family enzymatic activity in tissues, target engagement experiments were performed following a single oral dose (30 mg kg^−1) in rats. […] Lysyl oxidase family activity was measured in two tissues; aorta (core tissue) and ear (peripheral tissue).

With `Nc1ccn([C@@H]2O[C@H](CO)[C@@H](O)C2(F)F)c(=O)n1` [Gem, gemcitabine], the “picrosirius red staining in tumours” value in assay [1] was 26.8678 and 24.1241 and 47.4949 and 47.2536 and 61.2999 and 20.5678 and 34.5947 and 25.1726 and 42.1276 and 82.533.
`Cl.Cl.NC/C=C(\F)CS(=O)(=O)c1cccc2cccnc12.O` [PXS-5505, (Z)-3-fluoro-4-(quinolin-8-ylsulfonyl)but-2-en-1-amine dihydrochloride monohydrate]: in assay [2] (human pancreatic cancer CAFs, PXS-5505 30 µM), the matrix contraction entry is given as “no effect on CAF ability to contract matrices”. The area of matrices was 3.834 in assay [2] (time 0); 3 and 2.954 and 2.863 and 2.88 and 3.193 (2×) and 3.06 and 3.1 and 3.113 in assay [2] (time 6); 2.446 and 2.524 and 2.482 and 2.6253 and 2.773 and 2.7357 and 2.554 (2×) and 2.298 in assay [2] (time 10); 2.093 and 2.049 and 2.109 and 2.548 and 2.951 and 2.912 and 2.791 (2×) and 2.892 in assay [2] (time 12). For the same compound, the “recovery of lysyl oxidase family activity in the ear” value in assay [3] (single 30 mg kg−1 oral, over 120 h) is recorded as “approximately 50%”. The “Lysyl oxidase family activity in the ear” value in assay [3] (4 h) is 45.365 and 48.796 and 39.3331 and 45.8641 and 44.4191; in assay [3] (24 h), 63.1181 and 58.052 and 51.7601 and 46.8877 and 41.975; in assay [3] (48 h) it was 53.5883 and 61.6934 and 50.7554 and 53.1219; in assay [3] (120 h), 62.7632 and 56.3978 and 53.8738 and 91.7643.
